US20130089624A1, “Compounds Useful as Inhibitors of ATR Kinase” (VERTEX PHARMACEUTICALS INCORPORATED, priority 2011, published 2013)

Tests used:
[1] = Pharmacokinetics, noncompartmental parameters following intravenous (IV) dosing; settings: in vivo
Procedure: Noncompartmental pharmacokinetic parameters were analyzed using Watson Bioanalytical LIMS (Version 7.4; Thermo Fisher Scientific) from either the blood or plasma samples. The following parameters were estimated following intravenous (IV) dosing; terminal elimination half-life (T1/2=ln(2)/λz, where λz is the first order rate constant associated with the terminal (log-linear) portion of the curve.
The area under the curve (AUClast=area under the curve from the time of dosing to the last measurable concentration). The area under the curve extrapolated to infinity (AUC0-∞=AUClast+Clast/λz). The clearance (Cl; Cl=DoseIV/AUC0-∞). The area under the first moment curve (AUMClast=area under the concentration times time versus time curve from the time of dosing to the last measurable concentration). The area under the first moment curve extrapolated to infinity (AUMC0-∞=AUMClast+Clast×t/λz+Clast/λz^2). The mean residence time (MRT=AUMC0-∞/AUC0-∞) and the steady state volume of distribution (Vdss=MRT×Cl).
Clearance and volume of distribution can also be obtained using methods known to one of skill in the art (see e.g., Handbook of Essential Pharmacokinetics, Pharmacodynamics and Drug Metabolism for Industrial Scientists, Younggil Kwon, pp 18-28 (Non-compartmental Approach)).

full-length ATR = full-length ATR (Homo sapiens (Human), UniProt Q13535); assay: ATR Inhibition Assay (radioactive-phosphate incorporation); assay type: biochemical; settings: Ki(app); 5 nM full-length ATR, 10 μM ATP, 25° C.
Sequence of full-length ATR (Q13535 whole entry): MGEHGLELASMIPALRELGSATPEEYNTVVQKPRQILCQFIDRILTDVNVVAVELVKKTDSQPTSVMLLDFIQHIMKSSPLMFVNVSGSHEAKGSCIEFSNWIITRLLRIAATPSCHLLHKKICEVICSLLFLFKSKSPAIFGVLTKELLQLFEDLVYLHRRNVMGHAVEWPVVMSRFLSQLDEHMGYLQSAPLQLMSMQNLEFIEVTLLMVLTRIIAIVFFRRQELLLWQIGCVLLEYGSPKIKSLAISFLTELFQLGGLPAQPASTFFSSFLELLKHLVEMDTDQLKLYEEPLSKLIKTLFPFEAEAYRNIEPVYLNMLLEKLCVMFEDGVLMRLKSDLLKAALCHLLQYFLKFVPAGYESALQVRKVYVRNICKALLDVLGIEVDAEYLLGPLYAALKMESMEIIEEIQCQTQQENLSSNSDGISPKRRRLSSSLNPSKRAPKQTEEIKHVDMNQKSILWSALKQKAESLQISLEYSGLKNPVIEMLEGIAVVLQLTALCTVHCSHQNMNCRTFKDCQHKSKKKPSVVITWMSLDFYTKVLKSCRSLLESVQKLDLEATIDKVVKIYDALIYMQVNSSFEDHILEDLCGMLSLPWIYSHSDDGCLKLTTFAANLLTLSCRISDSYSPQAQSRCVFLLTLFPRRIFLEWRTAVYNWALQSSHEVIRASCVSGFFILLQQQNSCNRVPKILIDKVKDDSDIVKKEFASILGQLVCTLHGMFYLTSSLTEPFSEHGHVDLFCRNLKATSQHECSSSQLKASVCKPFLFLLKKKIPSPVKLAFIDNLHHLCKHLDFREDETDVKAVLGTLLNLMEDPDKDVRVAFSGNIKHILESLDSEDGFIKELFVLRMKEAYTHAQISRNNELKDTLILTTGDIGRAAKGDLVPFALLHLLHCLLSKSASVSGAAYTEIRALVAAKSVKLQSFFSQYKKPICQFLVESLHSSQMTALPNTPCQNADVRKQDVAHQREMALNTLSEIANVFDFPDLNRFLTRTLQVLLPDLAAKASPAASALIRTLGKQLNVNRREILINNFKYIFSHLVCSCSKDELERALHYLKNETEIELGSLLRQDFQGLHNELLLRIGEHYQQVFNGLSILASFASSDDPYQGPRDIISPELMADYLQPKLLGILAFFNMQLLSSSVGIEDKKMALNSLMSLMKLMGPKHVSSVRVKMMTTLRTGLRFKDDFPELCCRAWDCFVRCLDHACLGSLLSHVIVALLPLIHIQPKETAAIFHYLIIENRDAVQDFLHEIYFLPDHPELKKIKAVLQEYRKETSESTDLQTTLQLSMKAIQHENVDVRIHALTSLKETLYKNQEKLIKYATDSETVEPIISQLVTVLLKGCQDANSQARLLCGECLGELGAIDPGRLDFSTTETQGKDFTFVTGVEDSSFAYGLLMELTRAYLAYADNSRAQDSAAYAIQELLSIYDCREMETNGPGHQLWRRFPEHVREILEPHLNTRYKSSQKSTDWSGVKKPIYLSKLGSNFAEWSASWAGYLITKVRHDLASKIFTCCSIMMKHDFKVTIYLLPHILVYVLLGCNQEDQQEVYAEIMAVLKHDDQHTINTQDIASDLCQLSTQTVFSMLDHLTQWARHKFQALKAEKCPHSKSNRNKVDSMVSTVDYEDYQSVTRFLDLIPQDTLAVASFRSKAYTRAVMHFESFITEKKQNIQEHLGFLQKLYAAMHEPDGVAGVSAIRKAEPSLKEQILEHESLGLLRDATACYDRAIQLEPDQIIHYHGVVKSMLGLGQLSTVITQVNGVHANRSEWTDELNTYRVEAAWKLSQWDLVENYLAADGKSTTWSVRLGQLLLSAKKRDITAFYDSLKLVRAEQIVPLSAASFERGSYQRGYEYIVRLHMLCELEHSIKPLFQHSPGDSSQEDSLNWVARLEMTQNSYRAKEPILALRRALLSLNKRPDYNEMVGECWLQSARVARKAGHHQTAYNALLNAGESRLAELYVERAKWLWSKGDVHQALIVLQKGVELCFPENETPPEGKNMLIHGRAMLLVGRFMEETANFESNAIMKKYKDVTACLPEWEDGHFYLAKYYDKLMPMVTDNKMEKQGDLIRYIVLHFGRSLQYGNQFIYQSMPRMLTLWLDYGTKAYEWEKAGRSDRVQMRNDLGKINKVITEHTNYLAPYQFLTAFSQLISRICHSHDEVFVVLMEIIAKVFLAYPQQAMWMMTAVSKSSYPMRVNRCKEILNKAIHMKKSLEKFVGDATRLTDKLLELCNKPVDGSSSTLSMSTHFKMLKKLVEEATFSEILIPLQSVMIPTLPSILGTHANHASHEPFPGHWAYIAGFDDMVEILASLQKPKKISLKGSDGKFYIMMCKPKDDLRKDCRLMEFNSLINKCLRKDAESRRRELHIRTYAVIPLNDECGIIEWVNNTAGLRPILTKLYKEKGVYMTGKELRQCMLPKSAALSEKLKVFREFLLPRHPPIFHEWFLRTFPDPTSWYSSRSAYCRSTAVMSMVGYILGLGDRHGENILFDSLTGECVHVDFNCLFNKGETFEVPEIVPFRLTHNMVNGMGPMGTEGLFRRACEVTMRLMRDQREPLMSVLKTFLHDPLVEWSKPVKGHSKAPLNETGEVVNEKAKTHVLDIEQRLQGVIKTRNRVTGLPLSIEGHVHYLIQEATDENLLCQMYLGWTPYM
Procedure: Compounds were screened for their ability to inhibit ATR kinase using a radioactive-phosphate incorporation assay. Assays were carried out in a mixture of 50 mM Tris/HCl (pH 7.5), 10 mM MgCl2 and 1 mM DTT. Final substrate concentrations were 10 μM [γ-33P]ATP (3mCi 33P ATP/mmol ATP, Perkin Elmer) and 800 μM target peptide (ASELPASQPQPFSAKKK).
Assays were carried out at 25° C. in the presence of 5 nM full-length ATR. An assay stock buffer solution was prepared containing all of the reagents listed above, with the exception of ATP and the test compound of interest. 13.5 μL of the stock solution was placed in a 96 well plate followed by addition of 2 μL of DMSO stock containing serial dilutions of the test compound (typically starting from a final concentration of 15 μM with 3-fold serial dilutions) in duplicate (final DMSO concentration 7%). The plate was pre-incubated for 10 minutes at 25° C. and the reaction initiated by addition of 15 μL [γ-33P]ATP (final concentration 10 μM).
The reaction was stopped after […] by the addition of 30 μL 0.1M phosphoric acid containing 2 mM ATP. […]
After removing mean background values for all of the data points, Ki(app) data were calculated from non-linear regression analysis of the initial rate data using the Prism software package (GraphPad Prism version 3.0cx for Macintosh, GraphPad Software, San Diego Calif., USA).

[2] = test system: HCT116 colorectal cancer cells; assay: Single Agent HCT116 Activity, 96 h cell viability (MTS) assay; assay type: cell-based; settings: Homo sapiens, HCT-116, 96 h MTS, read-out: Single agent HT116 IC50
Procedure: Compounds can be screened for single agent activity against HCT116 colorectal cancer cells using a 96 h cell viability (MTS) assay. HCT116 are plated at 470 cells per well in 96-well polystyrene plates (Costar 3596) in 150 μl of McCoy's 5A media (Sigma M8403) supplemented with 10% foetal bovine serum (JRH Biosciences 12003), Penicillin/Streptomycin solution diluted 1:100 (Sigma P7539), and 2 mM L-glumtamine (Sigma G7513), and allowed to adhere overnight at 37° C. in 5% CO2. Compounds are then added to the cell media in 2-fold serial dilutions from a top final concentration of 10 μM as a full matrix of concentrations in a final cell volume of 200 μl, and the cells are then incubated at 37° C. in 5% CO2. After 96 h, 40 μl of MTS reagent (Promega G358a) is added to each well and the cells are incubated for 1 h at 37° C. in 5% CO2. Finally, absorbance is measured at 490 nm using a SpectraMax Plus 384 reader (Molecular Devices) and IC50 values can be calculated.

intracellular ATR = intracellular ATR (Homo sapiens (Human), UniProt Q13535); assay: Cellular ATR Inhibition Assay (phosphorylation of histone H2AX in hydroxyurea treated HT29 cells); assay type: cell-based; settings: phosphorylated H2AX Ser139 in HT29 cells, 2 mM hydroxyurea; read-out: ATR biomarker IC50
Sequence of intracellular ATR (Q13535 whole entry): as above
Sequence of intracellular ATR (Q8WXE1 whole entry partner): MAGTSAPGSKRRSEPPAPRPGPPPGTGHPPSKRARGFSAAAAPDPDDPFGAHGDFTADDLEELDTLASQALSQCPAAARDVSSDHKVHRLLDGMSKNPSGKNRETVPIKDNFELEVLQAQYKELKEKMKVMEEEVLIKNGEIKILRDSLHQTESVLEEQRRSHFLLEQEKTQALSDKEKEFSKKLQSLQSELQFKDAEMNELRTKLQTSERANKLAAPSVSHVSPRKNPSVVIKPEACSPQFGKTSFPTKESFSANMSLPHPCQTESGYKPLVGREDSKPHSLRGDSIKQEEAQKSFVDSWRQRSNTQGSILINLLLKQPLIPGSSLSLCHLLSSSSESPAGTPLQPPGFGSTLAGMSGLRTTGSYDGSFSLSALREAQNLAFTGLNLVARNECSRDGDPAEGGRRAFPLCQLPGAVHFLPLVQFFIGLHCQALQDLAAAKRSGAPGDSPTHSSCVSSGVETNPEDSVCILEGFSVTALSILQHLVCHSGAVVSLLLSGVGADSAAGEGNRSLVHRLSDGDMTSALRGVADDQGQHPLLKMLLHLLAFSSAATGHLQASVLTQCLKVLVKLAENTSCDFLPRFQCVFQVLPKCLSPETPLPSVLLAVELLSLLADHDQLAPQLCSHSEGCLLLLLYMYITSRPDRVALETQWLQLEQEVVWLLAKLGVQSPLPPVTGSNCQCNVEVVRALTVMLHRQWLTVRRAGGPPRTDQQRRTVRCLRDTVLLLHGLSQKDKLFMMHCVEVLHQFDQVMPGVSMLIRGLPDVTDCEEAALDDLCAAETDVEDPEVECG
Procedure: Compounds can be screened for their ability to inhibit intracellular ATR using an immunofluorescence microscopy assay to detect phosphorylation of the ATR substrate histone H2AX in hydroxyurea treated cells. HT29 cells are plated at 14,000 cells per well in 96-well black imaging plates (BD 353219) in McCoy's 5A media (Sigma M8403) supplemented with 10% foetal bovine serum (JRH Biosciences 12003), Penicillin/Streptomycin solution diluted 1:100 (Sigma P7539), and 2 mM L-glumtamine (Sigma G7513), and allowed to adhere overnight at 37° C. in 5% CO2. Compounds are then added to the cell media from a final concentration of 25 μM in 3-fold serial dilutions and the cells are incubated at 37° C. in 5% CO2. […]
Cells are imaged for Alexa Fluor 488 and Hoechst intensity using the BD Pathway 855 Bioimager and Attovision software (BD Biosciences, Version 1.6/855) to quantify phosphorylated H2AX Ser139 and DNA staining, respectively. The percentage of phosphorylated H2AX-positive nuclei in a montage of 9 images at 20× magnification is then calculated for each well using BD Image Data Explorer software (BD Biosciences Version 2.2.15). […] The percentage of H2AX positive nuclei is finally plotted against concentration for each compound and IC50s for intracellular ATR inhibition are determined using Prism software (GraphPad Prism version 3.0cx for Macintosh, GraphPad Software, San Diego Calif., USA).

[3] = test system: HCT116 colorectal cancer cells; assay: Cisplatin Sensitization Assay, 96 h cell viability (MTS) assay; assay type: cell-based; settings: concentration of compound required to reduce the IC50 of Cisplatin alone by at least 3-fold; HCT116, 96 h MTS
Procedure: Compounds can be screened for their ability to sensitize HCT116 colorectal cancer cells to Cisplatin using a 96 h cell viability (MTS) assay. […] Compounds and Cisplatin are then both added simultaneously to the cell media in 2-fold serial dilutions from a top final concentration of 10 μM as a full matrix of concentrations in a final cell volume of 200 μl, and the cells are then incubated at 37° C. in 5% CO2. After 96 h, 40 μl of MTS reagent (Promega G358a) is added to each well and the cells are incubated for 1 h at 37° C. in 5% CO2. Finally, absorbance is measured at 490 nm using a SpectraMax Plus 384 reader (Molecular Devices) and the concentration of compound required to reduce the IC50 of Cisplatin alone by at least 3-fold (to 1 decimal place) can be reported.

clearance ([1]; blood or plasma samples): 3.5 mL/min/kg
Vd ([1]; steady state volume of distribution, read-out: VSS): 1.1 L/kg
Ki (full-length ATR): 0.503 nM
IC50 [2]: 365 nM
IC50 (intracellular ATR): 200 nM
SMILES: CC(C)S(=O)(=O)c1ccc(-c2cnc(N)c(-c3cc(-c4ccc([C@@H]5COCCN5)cc4)no3)n2)cc1 [I, 5-(4-isopropylsulfonylphenyl)-3-[3-[4-[(3R)-morpholin-3-yl]phenyl]isoxazol-5-yl]pyrazin-2-amine]
Cisplatin sensitization [3]: 117 nM
